Measurements from patent US20100152129A1 (priority 2008, published 2010).

Test system: Panc-1 cell line
Assay: Gene expression profile using RTQ-PCR
Format: cell-based
Settings: Panc1, RTQ-PCR
Experimental: The objective of the experiment was to evaluate the synergistic effect of drug combination (Gemcitabine with […]) as compared to individual use of the same. The synergistic effect of the compound or drug combination in the Panc-1 cell line was measured in terms of gene expression and expressed as fold changes as compared to the cell control with no drug treatment. Methodology: Cell lines treated with drugs (Gemcitabine, […] or both) were used for total RNA isolation using a commercial RNA extraction kit (Qiagen Corporation, Germany). […] This was followed by real time quantitative polymerase chain reaction (RTQ PCR) using gene specific primers and standard thermal program of initial denaturation at 95° C. for 5 mins and 40 cycles of 95° C. for 10 seconds, followed by […] for 30 seconds (Realplex PCR machine from Eppendorf, Germany). Quantitative measurement of products made during PCR cycles was normalized against a housekeeping gene (Actin) and used to measure the gene expression as fold changes as compared to respective control (FIG. 5).

Row | SMILES | DLG5 gene expression vs control cells with no drug treatment [log 2 fold ratio] | E2F1 gene expression vs control cells with no drug treatment [log 2 fold ratio] | MAPK1 gene expression vs control cells with no drug treatment [log 2 fold ratio] | PDCD2 gene expression vs control cells with no drug treatment [log 2 fold ratio] | POLB gene expression vs control cells with no drug treatment [log 2 fold ratio] | PTK7 gene expression vs control cells with no drug treatment [log 2 fold ratio] | PTN gene expression vs control cells with no drug treatment [log 2 fold ratio] | RASA1 gene expression vs control cells with no drug treatment [log 2 fold ratio] | REV3L gene expression vs control cells with no drug treatment [log 2 fold ratio] | SSTR2 gene expression vs control cells with no drug treatment [log 2 fold ratio] | STAT4 gene expression vs control cells with no drug treatment [log 2 fold ratio] | other results
1 | CN1CCC(c2c(O)cc(O)c3c(=O)cc(-c4ccccc4Cl)oc23)C(O)C1 (stereo not shown) [drawing 5] | −1.19 | −0.62 | −2.31 | 0.50 | 0.34 | 0.16 | −0.24 | −1.10 | −1.42 | −2.98 | −1.39 | 
2 | CC[C@H](CO)Nc1nc(NCc2ccccc2)c2ncn(C(C)C)c2n1 [drawing 2] | −0.71 | 0.03 | −0.29 | −0.05 | −0.26 | 0.11 | −0.28 | −0.41 | −0.27 | −0.37 | −1.66 | 
3 | CN1CC[C@@H](c2c(O)cc(O)c3c(=O)cc(-c4ccc(C(F)(F)F)cc4Cl)oc23)[C@@H]1CO.Cl [drawing 3] | −1.01 | −0.43 | 0.64 | 0.77 | −0.05 | 0.30 | 0.40 | 0.10 | −0.13 | −0.69 | −1.52 | 
4 | CN1CC[C@@H](c2c(O)cc(O)c3c(=O)cc(-c4ccc(C(F)(F)F)cc4Cl)oc23)[C@@H]1CO.Cl [drawing 12] |  |  |  |  |  |  |  |  |  |  |  | CDK2 gene expression vs control cells with no drug treatment: 0.96 log 2 fold ratio; CDK4 gene expression vs control cells with no drug treatment: 0.73 log 2 fold ratio; CDK6 gene expression vs control cells with no drug treatment: 1.48 log 2 fold ratio; CDK8 gene expression vs control cells with no drug treatment: 0.20 log 2 fold ratio; DDIT4 gene expression vs control cells with no drug treatment: −0.31 log 2 fold ratio; RRM1 gene expression vs control cells with no drug treatment: −0.24 log 2 fold ratio; RRM2 gene expression vs control cells with no drug treatment: 0.04 log 2 fold ratio; p14 gene expression vs control cells with no drug treatment: −0.59 log 2 fold ratio; p18 gene expression vs control cells with no drug treatment: −0.12 log 2 fold ratio; p27 gene expression vs control cells with no drug treatment: −0.30 log 2 fold ratio
